Experimental data published in patent US20260250318A1, “COMPOSITIONS AND METHODS FOR CROSSING THE BLOOD BRAIN BARRIER” (VOYAGER THERAPEUTICS, INC., priority 2022, published 2026).

system: brain; experiment: Matured TTM-001 and TTM-002 variants, NGS enrichment in mouse brain; format: in vivo, mice; conditions: mouse brain; relative to AAV9 control

Row | Sequence | Fold Enrichment relative to AAV9, Brain (Mouse) [fold]
1 | KAEIGHDSPHKSGQNQQT | 27.173

system: brains, heart, liver, muscle, and DRG of the NHPs; experiment: Maturation of TTM-001 and TTM-002 capsids, NGS enrichment in NHP tissues; format: in vivo; conditions: NGS fold-enrichment of matured AAV capsid variants; NHP brain, RNA; relative to AAV9 control
Procedure, shortened: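 Variants carry mutations within and flanking the loop IV peptide insert: positions 450–466 were triplet-randomized, while positions 449–466 received low-frequency point mutations. The combined pool went into two NHPs, and each peptide was scored by NGS enrichment ratio against AAV9.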

Row | Sequence | Fold Enrichment relative to AAV9, Brain (NHP) [fold]
2 | KAEIGHDSPHKSGQNQQT | 63.249

same assay, conditions: NHP DRG; relative to AAV9 control

Row | Sequence | Fold Enrichment relative to AAV9, DRG (NHP) [fold]
3 | KAEIGHDSPHKSGQNQQT | 0.000

same assay, conditions: NHP heart; relative to AAV9 control

Row | Sequence | Fold Enrichment relative to AAV9, Heart (NHP) [fold]
4 | KAEIGHDSPHKSGQNQQT | 0.000

same assay, conditions: NHP liver, DNA; relative to AAV9 control

Row | Sequence | Fold Enrichment relative to AAV9, Liver DNA (NHP) [fold]
5 | KAEIGHDSPHKSGQNQQT | 0.024

same assay, conditions: NHP liver, RNA; relative to AAV9 control

Row | Sequence | Fold Enrichment relative to AAV9, Liver RNA (NHP) [fold]
6 | KAEIGHDSPHKSGQNQQT | 0.060

same assay, conditions: NHP muscle; relative to AAV9 control

Row | Sequence | Fold Enrichment relative to AAV9, Muscle (NHP) [fold]
7 | KAEIGHDSPHKSGQNQQT | 0.000

system: brain; experiment: Maturation of TTM-002 capsid, NGS enrichment in brain of CD-1 Outbred mice; format: in vivo; conditions: NGS fold-enrichment in the brain of CD-1 Outbred mice; intravenous, 1.0×10^12 VG/dose, 14 days; RNA; relative to non-matured TTM-002 control
Source text: This Example describes maturation of the TTM-001 (SEQ ID NO: 981 (amino acid) and 983 (DNA), comprising SEQ ID NO: 941) and TTM-002 (SEQ ID NO: 982 (amino acid) and 984 (DNA), comprising SEQ ID NO: 2) capsid variants to further enhance their transduction and biodistribution in the central nervous system and evolve the AAV capsid variants to provide further cross-species compatibility. Two approaches were used to mature the TTM-001 and TTM-002 capsid sequences in order to randomize and mutate within and around the peptide insert comprised within loop IV of the capsid variant. […] In the first maturation approach, sets of three contiguous amino acids were randomized across the mutagenesis region in the TTM-001 and TTM-002 sequences, which spanned from position 450 to position 466, numbered according to SEQ ID NO: 981 and 982. In the second maturation approach, mutagenic primers were used to introduce point mutations at a low frequency, scattered across the mutagenesis region in the TTM-001 and TTM-002 sequences ranging from position 449 to position 466, numbered according to SEQ ID NO: 981 and 982. AAV capsid variants arising from each maturation approach for TTM-001 were pooled together and AAV capsid variants arising from each maturation approach for TTM-002 were also pooled together, for subsequent testing and characterization in mice.
The library of pooled matured AAV capsid variants generated from TTM-001 or library of pooled matured AAV capsid variants generated from the TTM-002 matured AAV capsid variant each were intravenously injected into the tail vein of three female CD-1 Outbred mice (Charles River) at a dose of 1.0×10^12 VG/dose. After 14-days in life, the brains of the mice were isolated and RNA was extracted. Following RNA recovery and RT-PCR amplification, a systematic NGS enrichment analysis was performed to calculate the fold enrichment ratio relative to the corresponding TTM-001 or TTM-002 control, and the peptides comprised within the variants were identified. The data for the TTM-001 matured capsid variants is provided in Table 13 and the data for the TTM-002 matured capsid variants is provided in Table 14.

Row | Sequence | Fold enrichment over TTM-002
8 | KAEIGHDSPHKSGQNQQT | 2.17
9 | KIESGHDSPHKSGQNQQT | 2.11
10 | KIETGHDSPHKSGQNQQT | 2.38
11 | KIEVGHDSPHKSGQNQQT | 2.16
12 | KIEYGHDSPHKSGQNQQT | 2.41
13 | KIINGHDSPHKSGLTQQT | 2.17
14 | KIPEGHDSPHKSGQNQQT | 2.54
15 | KISNGHDSPHKSAQNQQT | 2.03
16 | KLEWGHDSPHKSGQNQQT | 2.14
17 | KLEYGHDSPHKSGQNQQT | 2.33
18 | KLPEGHDSPHKSGQNQQT | 2.19
19 | KMDAGHDSPHKSGQNQQT | 2.15
20 | KMDGGHDSPHKSGQNQQT | 2.09
21 | KMEAGHDSPHKSGQNQQT | 2.12
22 | KMEFGHDSPHKSGQNQQT | 2.21
23 | KMEGGHDSPHKSGQNQQT | 2.72
24 | KMEIGHDSPHKSGQNQQT | 2.34
25 | KMELGHDSPHKSGQNQQT | 2.13
26 | KMEMGHDSPHKSGQNQQT | 2.16
27 | KMESGHDSPHKSGQNQQT | 2.18
28 | KMETGHDSPHKSGQNQQT | 2.12
29 | KMEVGHDSPHKSGQNQQT | 2.11
30 | KMEWGHDSPHKSGQNQQT | 2.38
31 | KMEYGHDSPHKSGQNQQT | 2.71
32 | KMPEGHDSPHKSGQNQQT | 3.18
33 | KNMNGHDSPHKSGQNTHS | 2.06
34 | KQEVGHDSPHKSGQNQQT | 2.07
35 | KQQQGHDSPHKSGQNQQT | 2.01

Row | Sequence | Fold enrichment over TTM-002
36 | KRINGHDSPHKSGQKQQN | 2.34
37 | KTAKDHDSPHKSGQNQQT | 2.11
38 | KTANEHDSPHKSGQNQQT | 2.05
39 | KTGNGHDSPHKSGQYQQT | 2.03
40 | KTIKDNDSPHKSGQNQQT | 2.27
41 | KTINGHDSPHINGQKQQT (KTINGHDSPHTNGQKQQT) | 2.38
42 | KTINGHDSPHKRGQHRQT | 4.20
43 | KTINGHDSPHKSAQNQWT | 2.07
44 | KTINGHDSPHKSGRRRQT | 2.04
45 | KTINGHDSPHKSRQNDQT | 2.01
46 | KTINGHDSPHLCGQNQQT | 2.59
47 | KTINGHDSPHLLWQNQQT | 2.12
48 | KTINGHDSPHVIDQNQQT (KTINGHDSPHVTDQNQQT) | 5.20
49 | KTINGHDSPHWLLQNQQT | 2.37
50 | KTINGHESPHKSAQNHQT | 2.07
51 | KTINGHLSPHYFGQNQQT | 2.41
52 | KTINGHLSPHYYGQNQQT | 2.13
53 | KTINGHPSPHYLGQNQQT | 2.14
54 | KTINGHSSPHYFGQNQQT | 2.05
55 | KTINGHYSPHLFGQNQQT | 2.02
56 | KTINGNYSPHKIGQNQQT | 2.02
57 | KTINRQRSPHKSGQNQQT | 2.11
58 | KTPQDHDSPHKSGQNQQT | 2.00
59 | KTPWEHDSPHKSGQNQQT | 2.05
60 | KTSNGDDSPHKSGRNQQT | 2.17
61 | KVEWGHDSPHKSGQNQQT | 2.15
62 | KVEYGHDSPHKSGQNQQT (peptide inserted in AAV capsid) | 2.17
